Reference: patent publication US6706663B2, “Herbicidal 3-heterocyclic substituted benzisothiazole and benzisoxazole compounds” (Wyeth, priority 2000, dated 2004)

How the values were obtained:
[1] = test system: MOOVA (Monochoria vaginalis); experiment: Flooded paddy, preemergence weed control; assay type: in vivo, Presl.; settings: rated 3-4 weeks after treatment, 0-9 rating scale
Summary of the method: (§1)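 Flooded silt loam pots, seeds in upper 0.5 cm, water held 1.5–3 cm deep; greenhouse; visual 0-9 score vs control.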

[2] = test system: TRZAWR (Wheat, Winter, cv Riband); experiment: Preemergence herbicidal evaluation; assay type: in vivo, Triticum aestivum; settings: rated 4-5 weeks after treatment
Summary of the method: (§2)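 Rating 0–9, visual, vs control; 4–5 wk after spraying seeded cups with compound in aq. acetone; conventional greenhouse care.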

[3] = test system: CYPIR (Cyperus iria); experiment: Flooded paddy, preemergence weed control; assay type: in vivo; settings: rated 3-4 weeks after treatment, 0-9 rating scale
Summary of the method: as §1

[4] = test system: IPOHE (Ipomoea hederacea); experiment: Postemergence herbicidal evaluation; assay type: in vivo, (L.) Jacq.; settings: for IPOHE herbicidal rating: postemergence
Summary of the method: (§3)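 Visual 0–9 injury scores versus control plants, covering stand, vigour, malformation, size, chlorosis and general appearance, taken four to five weeks post-spray and averaged over replicate tests. Plants were sprayed at roughly two weeks old and held on greenhouse benches.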

[5] = test system: IPOHE (Ipomoea hederacea); experiment: Preemergence herbicidal evaluation; assay type: in vivo, (L.) Jacq.; settings: rated 4-5 weeks after treatment
[6] = test system: ZEAMX (Corn, Field); experiment: Preemergence herbicidal evaluation; assay type: in vivo, Zea mays, L.; settings: rated 4-5 weeks after treatment
[7] = test system: ORYSAT (Rice, Tebonnet); experiment: Postemergence herbicidal evaluation; assay type: in vivo, Oryza sativa, (L.) Tebonnet; settings: for ORYSAT herbicidal rating: postemergence
Summary of the method: as §3

[8] = test system: GLXMAW (Soybean, Williams); experiment: Postemergence herbicidal evaluation; assay type: in vivo, Glycine max, (L.) Merr. cv Williams; settings: for GLXMAW herbicidal rating: postemergence
Summary of the method: as §3

[9] = test system: ABUTH (Abutilon theophrasti); experiment: Postemergence herbicidal evaluation; assay type: in vivo, Medic.; settings: for ABUTH herbicidal rating: postemergence
Summary of the method: as §3

[10] = test system: AMBEL (Ambrosia artemisifolia); experiment: Postemergence herbicidal evaluation; assay type: in vivo, L.; settings: for AMBEL herbicidal rating: postemergence
Summary of the method: as §3

[11] = test system: CHEAL (Chenopodium album); experiment: Postemergence herbicidal evaluation; assay type: in vivo, L.; settings: for CHEAL herbicidal rating: postemergence
Summary of the method: as §3

[12] = test system: CASOB (Cassia obtusifolia); experiment: Postemergence herbicidal evaluation; assay type: in vivo, L.; settings: for CASOB herbicidal rating: postemergence
Summary of the method: as §3

[13] = test system: ABUTH (Abutilon theophrasti); experiment: Preemergence herbicidal evaluation; assay type: in vivo, Medic.; settings: rated 4-5 weeks after treatment
[14] = test system: ORYSAT (Rice, Tebonnet); experiment: Flooded paddy, post-transplant rice tolerance; assay type: in vivo, Oryza sativa, (L.) Tebonnet; settings: flooded paddy, post-transplant rice, rated 3-4 weeks after treatment, 0-9 rating scale
Summary of the method: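 Scores (0-9) reflect visual injury relative to untreated plants in flooded silt loam. Each pot held two transplanted ten-day-old seedlings under 1.5 to 3 cm standing water in the greenhouse.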

[15] = test system: GLXMAW (Soybean, Williams); experiment: Preemergence herbicidal evaluation; assay type: in vivo, Glycine max, (L.) Merr. cv Williams; settings: rated 4-5 weeks after treatment
[16] = test system: SETVI (Setaria viridis); experiment: Preemergence herbicidal evaluation; assay type: in vivo, (L.) Beau; settings: rated 4-5 weeks after treatment
Summary of the method: as §2

[17] = test system: ECHCG (Echinochloa crus-galli); experiment: Preemergence herbicidal evaluation; assay type: in vivo, (L.) Beau; settings: rated 4-5 weeks after treatment
Summary of the method: as §2

[18] = test system: AMBEL (Ambrosia artemisifolia); experiment: Preemergence herbicidal evaluation; assay type: in vivo, L.; settings: rated 4-5 weeks after treatment
Summary of the method: as §2

[19] = test system: CHEAL (Chenopodium album); experiment: Preemergence herbicidal evaluation; assay type: in vivo, L.; settings: rated 4-5 weeks after treatment
Summary of the method: as §2

[20] = test system: CASOB (Cassia obtusifolia); experiment: Preemergence herbicidal evaluation; assay type: in vivo, L.; settings: rated 4-5 weeks after treatment
Summary of the method: as §2

## Cn1c(C(F)(F)F)cc(=O)n(-c2ccc3snc(C4OCC(CO)O4)c3c2)c1=O (stereo not shown) [Compound 73, 3-[3-[4-(hydroxymethyl)-1,3-dioxolan-2-yl]-1,2-benzisothiazol-5-yl]-1-methyl-6-(trifluoromethyl)uracil]
[1]; rate 0.0080 kg/ha
  herbicidal rating, MOOVA: 0.0
[1]; rate 0.0320 kg/ha
  herbicidal rating, MOOVA: 0.0
[1]; rate 0.1250 kg/ha
  herbicidal rating, MOOVA: 9.0
[2]; Rate 0.0620 kg/ha
  Preemergence herbicidal rating TRZAWR: 4.0
[2]; Rate 0.1250 kg/ha
  Preemergence herbicidal rating TRZAWR: 6.0
[2]; Rate 0.2500 kg/ha
  Preemergence herbicidal rating TRZAWR: 8.0
[3]; rate 0.0080 kg/ha
  herbicidal rating, CYPIR: 0.0
[3]; rate 0.0320 kg/ha
  herbicidal rating, CYPIR: 0.0
[3]; rate 0.1250 kg/ha
  herbicidal rating, CYPIR: 9.0
[4]; rate 0.0320 kg/ha
  IPOHE herbicidal rating: 9.0
[4]; rate 0.0620 kg/ha
  IPOHE herbicidal rating: 9.0
[5]; Rate 0.0620 kg/ha
  Preemergence herbicidal rating IPOHE: 7.0
[5]; Rate 0.1250 kg/ha
  Preemergence herbicidal rating IPOHE: 9.0
[5]; Rate 0.2500 kg/ha
  Preemergence herbicidal rating IPOHE: 9.0
[6]; Rate 0.0620 kg/ha
  Preemergence herbicidal rating ZEAMX: 6.5
[6]; Rate 0.1250 kg/ha
  Preemergence herbicidal rating ZEAMX: 9.0
[6]; Rate 0.2500 kg/ha
  Preemergence herbicidal rating ZEAMX: 9.0
[7]; rate 0.0320 kg/ha
  ORYSAT herbicidal rating: 3.0
[7]; rate 0.0620 kg/ha
  ORYSAT herbicidal rating: 4.0
[8]; rate 0.0320 kg/ha
  GLXMAW herbicidal rating: 5.5
[8]; rate 0.0620 kg/ha
  GLXMAW herbicidal rating: 7.5
[9]; rate 0.0320 kg/ha
  ABUTH herbicidal rating: 9.0
[9]; rate 0.0620 kg/ha
  ABUTH herbicidal rating: 9.0
[10]; rate 0.0320 kg/ha
  AMBEL herbicidal rating: 9.0
[10]; rate 0.0620 kg/ha
  AMBEL herbicidal rating: 9.0
[11]; rate 0.0320 kg/ha
  CHEAL herbicidal rating: 9.0
[11]; rate 0.0620 kg/ha
  CHEAL herbicidal rating: 9.0
[12]; rate 0.0320 kg/ha
  CASOB herbicidal rating: 3.0
[12]; rate 0.0620 kg/ha
  CASOB herbicidal rating: 4.0
[13]; Rate 0.0620 kg/ha
  Preemergence herbicidal rating ABUTH: 9.0
[13]; Rate 0.1250 kg/ha
  Preemergence herbicidal rating ABUTH: 9.0
[13]; Rate 0.2500 kg/ha
  Preemergence herbicidal rating ABUTH: 9.0
[14]; rate 0.0080 kg/ha
  herbicidal rating, ORYSAT (rice tolerance): 0.0
[14]; rate 0.0320 kg/ha
  herbicidal rating, ORYSAT (rice tolerance): 0.0
[14]; rate 0.1250 kg/ha
  herbicidal rating, ORYSAT (rice tolerance): 5.0
[15]; Rate 0.0620 kg/ha
  Preemergence herbicidal rating GLXMAW: 4.0
[15]; Rate 0.1250 kg/ha
  Preemergence herbicidal rating GLXMAW: 7.0
[15]; Rate 0.2500 kg/ha
  Preemergence herbicidal rating GLXMAW: 8.0
[16]; Rate 0.0620 kg/ha
  Preemergence herbicidal rating SETVI: 9.0
[16]; Rate 0.1250 kg/ha
  Preemergence herbicidal rating SETVI: 9.0
[16]; Rate 0.2500 kg/ha
  Preemergence herbicidal rating SETVI: 9.0
[17]; Rate 0.0620 kg/ha
  Preemergence herbicidal rating ECHCG: 7.5
[17]; Rate 0.1250 kg/ha
  Preemergence herbicidal rating ECHCG: 9.0
[17]; Rate 0.2500 kg/ha
  Preemergence herbicidal rating ECHCG: 9.0
[18]; Rate 0.0620 kg/ha
  Preemergence herbicidal rating AMBEL: 8.5
[18]; Rate 0.1250 kg/ha
  Preemergence herbicidal rating AMBEL: 9.0
[18]; Rate 0.2500 kg/ha
  Preemergence herbicidal rating AMBEL: 9.0
[19]; Rate 0.0620 kg/ha
  Preemergence herbicidal rating CHEAL: 9.0
[19]; Rate 0.1250 kg/ha
  Preemergence herbicidal rating CHEAL: 9.0
[19]; Rate 0.2500 kg/ha
  Preemergence herbicidal rating CHEAL: 9.0
[20]; Rate 0.0620 kg/ha
  Preemergence herbicidal rating CASOB: 2.5
[20]; Rate 0.1250 kg/ha
  Preemergence herbicidal rating CASOB: 6.0
[20]; Rate 0.2500 kg/ha
  Preemergence herbicidal rating CASOB: 8.0

## CCOC(=O)C1CS[C@H](c2nsc3ccc(-n4c(=O)cc(C(F)(F)F)n(C)c4=O)cc23)N1 (stereo partly drawn) [Compound 2, ethyl (R)-2-[5-[3,6-dihydro-3-methyl-2,6-dioxo-4-(trifluoromethyl)-1(2H)-pyrimidinyl]-1,2-benzisothiazol-3-yl]-4-thiazolidinecarboxylate]
[1]; rate 0.0320 kg/ha
  herbicidal rating, MOOVA: 6.0
[1]; rate 0.1250 kg/ha
  herbicidal rating, MOOVA: 9.0
[2]; Rate 0.0620 kg/ha
  TRZAWR preemergence herbicidal rating: 2.0
[2]; Rate 0.1250 kg/ha
  TRZAWR preemergence herbicidal rating: 5.0
[2]; Rate 0.2500 kg/ha
  TRZAWR preemergence herbicidal rating: 7.0
[3]; rate 0.0320 kg/ha
  herbicidal rating, CYPIR: 0.0
[3]; rate 0.1250 kg/ha
  herbicidal rating, CYPIR: 2.0
[4]; rate 0.0320 kg/ha
  Postemergence herbicidal rating, IPOHE: 9.0
[4]; rate 0.0620 kg/ha
  Postemergence herbicidal rating, IPOHE: 9.0
[5]; Rate 0.0620 kg/ha
  IPOHE preemergence herbicidal rating: 9.0
[5]; Rate 0.1250 kg/ha
  IPOHE preemergence herbicidal rating: 9.0
[5]; Rate 0.2500 kg/ha
  IPOHE preemergence herbicidal rating: 9.0
[6]; Rate 0.0620 kg/ha
  ZEAMX preemergence herbicidal rating: 3.5
[6]; Rate 0.1250 kg/ha
  ZEAMX preemergence herbicidal rating: 6.5
[6]; Rate 0.2500 kg/ha
  ZEAMX preemergence herbicidal rating: 7.5
[7]; rate 0.0320 kg/ha
  Postemergence herbicidal rating, ORYSAT: 5.0
[7]; rate 0.0620 kg/ha
  Postemergence herbicidal rating, ORYSAT: 6.5
[8]; rate 0.0320 kg/ha
  Postemergence herbicidal rating, GLXMAW: 7.0
[8]; rate 0.0620 kg/ha
  Postemergence herbicidal rating, GLXMAW: 7.5
[9]; rate 0.0320 kg/ha
  Postemergence herbicidal rating, ABUTH: 9.0
[9]; rate 0.0620 kg/ha
  Postemergence herbicidal rating, ABUTH: 9.0
[10]; rate 0.0320 kg/ha
  Postemergence herbicidal rating, AMBEL: 7.0
[10]; rate 0.0620 kg/ha
  Postemergence herbicidal rating, AMBEL: 9.0
[11]; rate 0.0320 kg/ha
  Postemergence herbicidal rating, CHEAL: 9.0
[11]; rate 0.0620 kg/ha
  Postemergence herbicidal rating, CHEAL: 9.0
[12]; rate 0.0320 kg/ha
  Postemergence herbicidal rating, CASOB: 4.0
[12]; rate 0.0620 kg/ha
  Postemergence herbicidal rating, CASOB: 4.0
[13]; Rate 0.0620 kg/ha
  ABUTH preemergence herbicidal rating: 9.0
[13]; Rate 0.1250 kg/ha
  ABUTH preemergence herbicidal rating: 9.0
[13]; Rate 0.2500 kg/ha
  ABUTH preemergence herbicidal rating: 9.0
[14]; rate 0.0320 kg/ha
  herbicidal rating, ORYSAT (rice tolerance): 1.0
[14]; rate 0.1250 kg/ha
  herbicidal rating, ORYSAT (rice tolerance): 4.0
[15]; Rate 0.0620 kg/ha
  GLXMAW preemergence herbicidal rating: 5.5
[15]; Rate 0.1250 kg/ha
  GLXMAW preemergence herbicidal rating: 8.0
[15]; Rate 0.2500 kg/ha
  GLXMAW preemergence herbicidal rating: 8.0
[16]; Rate 0.0620 kg/ha
  SETVI preemergence herbicidal rating: 8.0
[16]; Rate 0.1250 kg/ha
  SETVI preemergence herbicidal rating: 8.0
[16]; Rate 0.2500 kg/ha
  SETVI preemergence herbicidal rating: 9.0
[17]; Rate 0.0620 kg/ha
  ECHCG preemergence herbicidal rating: 2.5
[17]; Rate 0.1250 kg/ha
  ECHCG preemergence herbicidal rating: 6.0
[17]; Rate 0.2500 kg/ha
  ECHCG preemergence herbicidal rating: 8.0
[18]; Rate 0.0620 kg/ha
  AMBEL preemergence herbicidal rating: 7.0
[18]; Rate 0.1250 kg/ha
  AMBEL preemergence herbicidal rating: 8.0
[18]; Rate 0.2500 kg/ha
  AMBEL preemergence herbicidal rating: 9.0
[19]; Rate 0.0620 kg/ha
  CHEAL preemergence herbicidal rating: 9.0
[19]; Rate 0.1250 kg/ha
  CHEAL preemergence herbicidal rating: 9.0
[19]; Rate 0.2500 kg/ha
  CHEAL preemergence herbicidal rating: 9.0
[20]; Rate 0.0620 kg/ha
  CASOB preemergence herbicidal rating: 5.0
[20]; Rate 0.1250 kg/ha
  CASOB preemergence herbicidal rating: 7.5
[20]; Rate 0.2500 kg/ha
  CASOB preemergence herbicidal rating: 7.0
